For orientation: IC50 means the midpoint of a concentration-inhibition curve. A high value points to weaker potency in that assay.

This assay deals with Ba/F3 ETV6-NTRK2 cells. In words: Proliferation of Ba/F3 ETV6-NTRK2 cells (CellTiter-Glo). The format is cell-based. The following applies: Mus musculus, BaF3; Table 2; 72 hours. The source says: Ba/F3 ETV6-NTRK2 cell is a stable transgenic cell line constructed by KYinno Biotechnology Co., Ltd. on mouse primary B cell Ba/F3 wherein NTRK2 is highly expressed and fused with ETV6 to form ETV6-NTRK2. • [Test method]: Promega's CellTiter-Glo® Luminescent Cell Viability Assay kit was used to evaluate the inhibitory activity of the compounds on the proliferation of Ba/F3 ETV6-NTRK2C cells. • [Instrument]: Spectramax M3 multifunctional microplate reader from Molecular Devices. • [Test materials]: Ba/F3 ETV6-NTRK2 cell line (constructed by KYinno Biotechnology Co., Ltd. (Beijing)), 96-well transparent flat-bottomed black-walled cell culture plate (Corning, cat #3603), RPMI-1640 media (GE, cat #SH30027.01), fetal bovine serum FBS (Thermo Fisher, cat #10099-141), CellTiter-Glo® Luminescent Cell Viability Assay kit (Promega, cat #G7572), PBS (Solarbio, cat #P1020), DMSO (Sigma, cat #D2650). • [Experimental procedure]: When resuscitating Ba/F3 ETV6-NTRK2 cells, the freezing tube was quickly shaken in a 37° C. water bath to melt within 1 minute. The thawed cell suspension was mixed uniformly with RPMI1640 medium containing 10% FBS, centrifuged at 1000 rpm for 5 minutes, and the supernatant discarded. 5 mL of complete medium (RPMI1640 medium with 10% FBS) was taken to resuspend the cell pellets, charged into a cell culture flask with a bottom area of 25 cm^2, and incubated in a cell incubator at 37° C., 95% humidity and 5% CO2. Cells were allowed to passage when the number of cells reached about 10^6 cells/mL. For cell passage, the old cell suspension was directly pipetted evenly, 1/5 of the cell suspension was kept, 4 mL of new complete medium was added, and after pipetting evenly, the cell flask was placed in the cell incubator for further culturing. Cell plating was performed when the number of cells reached about 10^6 cells/mL again. For cell plating, 1/5 of the cell suspension was kept for further culturing as in the cell passage method, and the remaining 4/5 of the cell suspension was placed in a 15 mL centrifuge tube, detected for cell viability by Trypan blue exclusion method to ensure that cell viability was above 90%. A cell suspension with a density of 5.56×10^4 viable cells/mL was prepared with complete medium, and 90 μL of such cell suspension was added to a 96-well cell culture plate to obtain a cell density of 5000 viable cells/mL in the cell culture plate. A control group containing no cells, no compound and only complete medium (i.e, culture medium control) and a control group containing no compound but containing cells (i.e, cell control) were set. The cell plate was placed in a cell incubator overnight. The 10 mM compound stock solution in DMSO was first serially diluted with DMSO at a dilution factor of 3.16 times, to obtain 9 concentrations, and the 10th concentration was set as DMSO control without compound. Then, PBS was used to dilute the DMSO solutions of compounds of different concentrations, at a dilution factor of 100 times, so that the DMSO concentration in the compound solution of each concentration was 1%. Finally, 10 μL of each of the above solutions was added to the corresponding cell culture plate, so that the initial compound concentration was 10 μM, with the remaining concentrations being successively diluted at a dilution factor of 3.16 times, and the DMSO content in the cell culture plate was 0.1%. The cell plate was placed in a cell incubator and cultured for 72 hours. For endpoint detection, the CellTiter-Glo reagent was melted, and the cell plate was moved to room temperature to equilibrate for 30 minutes, added with 100 μL of CellTiter-Glo for each well, and shaken on an orbital shaker for 5 minutes to fully lyse the cells. The plate was kept at room temperature for 20 minutes to stabilize the luminescence signal, and the luminescence value of each well was scanned with a multi-functional microplate reader at full wavelength. • [Test sample]
For orientation: Cellular ATP, detected with luciferase, serves as a proxy for viable cell number.

As to `Cn1ncc2cc(Oc3ccc(NC(=O)c4ccc(C(F)(F)F)n(-c5ccc(F)cc5)c4=O)cc3F)c(-c3cn[nH]c3)cc21` [Example 1, N-(3-fluoro-4-(1-methyl-6-(1H-pyrazol-4-yl)-1H-indazol-5-yloxy)phenyl)-1-(4-fluorophenyl)-6-trifluoromethyl-2-oxo-1,2-dihydmpyridine-3-carboxamide monomethanesulfonate], the IC50 worked out at 428 nM.
For `Cn1ncc2cc(Oc3ccc(NC(=O)c4ccc(C5CC5)n(-c5ccc(F)cc5)c4=O)cc3F)c(-c3cn[nH]c3)cc21` [Example 2, N-(3-fluoro-4-(1-methyl-6-(1H-pyrazol-4-yl)-1H-indazol-5-yloxy)phenyl)-1-(4-fluorophenyl)-6-cyclopropyl-2-oxo-1,2-dihydmpyridine-3-carboxamide] the value was 269 nM; for `CCn1ncc2cc(Oc3ccc(NC(=O)c4ccc(C)n(-c5ccc(F)cc5)c4=O)cc3F)c(-c3cn[nH]c3)cc21` [Example 3, N-(3-fluoro-4-(1-ethyl-6-(1H-pyrazol-4-yl)-1H-indazol-5-yloxy)phenyl)-1-(4-fluorophenyl)-6-methyl-2-oxo-1,2-dihydmpyridine-3-carboxamide], 341 nM.
The same measure for `Cc1ccc(C(=O)Nc2ccc(Oc3cc4cnn(C(C)C)c4cc3-c3cn[nH]c3)c(F)c2)c(=O)n1-c1ccc(F)cc1` [Example 4, N-(3-fluoro-4-(1-isopropyl-6-(1H-pyrazol-4-yl)-1H-indazol-5-yloxy)phenyl)-1-(4-fluorophenyl)-6-methyl-2-oxo-1,2-dihydmpyridine-3-carboxamide]: 876 nM; for `CCc1ccc(C(=O)Nc2ccc(Oc3cc4cnn(C)c4cc3-c3cn[nH]c3)c(F)c2)c(=O)n1-c1ccc(F)cc1` [Example 5, N-(3-fluoro-4-(1-methyl-6-(1H-pyrazol-4-yl)-1H-indazol-5-yloxy)phenyl)-1-(4-fluorophenyl)-6-ethyl-2-oxo-1,2-dihydropyridine-3-carboxamide]: 128 nM; for `CC(C)c1ccc(C(=O)Nc2ccc(Oc3cc4cnn(C)c4cc3-c3cn[nH]c3)c(F)c2)c(=O)n1-c1ccc(F)cc1` [Example 6, N-(3-fluoro-4-(1-methyl-6-(1H-pyrazol-4-yl)-1H-indazol-5-yloxy)phenyl)-1-(4-fluorophenyl)-6-isopropyl-2-oxo-1,2-dihydropyridine-3-carboxamide]: 209 nM.
Consider `O=C(Nc1cnn2ccc(N3CCC[C@@H]3c3cc(F)ccc3F)nc12)N1CC[C@H](O)C1` [LOXO-101, Larotrectinib, reference compound], for which the IC50 is 69 nM.
`Cc1ccc(C(=O)Nc2ccc(Oc3cc4cnn(C)c4cc3-c3cn[nH]c3)c(F)c2)c(=O)n1-c1ccc(F)cc1` [Merestinib, reference compound] had a 50% inhibitory concentration (IC50) of 211 nM.

The values above are taken from patent publication US11952364B2, “TRK inhibitors useful as anticancer drugs” (TYLIGAND BIOSCIENCE (SHANGHAI) LIMITED, priority 2018, dated 2024).
